# Legend:
# [1] = biological target: D(3) dopamine receptor (Homo sapiens, UniProt P35462); experiment: biochemical
# [2] = biological target: T1, 5-hydroxytryptamine receptor 1A (Rattus norvegicus, UniProt P19327); experiment: Binding affinity towards 5-hydroxytryptamine 1A receptor using [3H]8-OH-DPAT in rat hippocampus; assay type: tissue-based
# T1 sequence (P19327 whole entry): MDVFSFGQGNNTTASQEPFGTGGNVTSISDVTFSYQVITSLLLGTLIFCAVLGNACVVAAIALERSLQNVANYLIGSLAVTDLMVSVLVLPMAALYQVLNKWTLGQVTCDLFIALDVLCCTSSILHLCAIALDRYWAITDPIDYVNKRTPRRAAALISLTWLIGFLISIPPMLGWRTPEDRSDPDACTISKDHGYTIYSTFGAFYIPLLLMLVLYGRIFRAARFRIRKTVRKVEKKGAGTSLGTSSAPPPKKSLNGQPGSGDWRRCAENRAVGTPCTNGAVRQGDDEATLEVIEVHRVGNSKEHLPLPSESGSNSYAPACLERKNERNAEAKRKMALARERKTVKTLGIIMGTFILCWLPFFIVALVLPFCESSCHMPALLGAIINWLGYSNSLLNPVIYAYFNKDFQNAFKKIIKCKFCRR
# [3] = biological target: D(2) dopamine receptor (Homo sapiens, UniProt P14416)
# Sequence of D(2) dopamine receptor (P14416 whole entry): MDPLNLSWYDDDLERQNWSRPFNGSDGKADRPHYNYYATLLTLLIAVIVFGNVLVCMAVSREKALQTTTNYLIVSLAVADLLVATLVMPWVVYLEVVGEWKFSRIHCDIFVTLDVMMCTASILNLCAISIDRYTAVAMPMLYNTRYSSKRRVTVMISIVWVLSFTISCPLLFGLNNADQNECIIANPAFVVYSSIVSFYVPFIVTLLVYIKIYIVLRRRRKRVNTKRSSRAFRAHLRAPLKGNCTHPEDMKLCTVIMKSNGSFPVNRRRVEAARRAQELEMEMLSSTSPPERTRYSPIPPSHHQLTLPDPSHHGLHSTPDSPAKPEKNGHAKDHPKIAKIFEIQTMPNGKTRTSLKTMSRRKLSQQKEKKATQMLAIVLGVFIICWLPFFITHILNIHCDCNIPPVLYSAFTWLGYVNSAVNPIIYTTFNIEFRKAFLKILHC
# [4] = biological target: T2, Adrenergic receptor alpha-1 (Rattus norvegicus, UniProt P15823+P23944+P43140); experiment: Compound was evaluated for binding affinity towards Alpha-1 adrenergic receptor using [3H]prazosin in rat heart
# T2 sequence (P15823 whole entry): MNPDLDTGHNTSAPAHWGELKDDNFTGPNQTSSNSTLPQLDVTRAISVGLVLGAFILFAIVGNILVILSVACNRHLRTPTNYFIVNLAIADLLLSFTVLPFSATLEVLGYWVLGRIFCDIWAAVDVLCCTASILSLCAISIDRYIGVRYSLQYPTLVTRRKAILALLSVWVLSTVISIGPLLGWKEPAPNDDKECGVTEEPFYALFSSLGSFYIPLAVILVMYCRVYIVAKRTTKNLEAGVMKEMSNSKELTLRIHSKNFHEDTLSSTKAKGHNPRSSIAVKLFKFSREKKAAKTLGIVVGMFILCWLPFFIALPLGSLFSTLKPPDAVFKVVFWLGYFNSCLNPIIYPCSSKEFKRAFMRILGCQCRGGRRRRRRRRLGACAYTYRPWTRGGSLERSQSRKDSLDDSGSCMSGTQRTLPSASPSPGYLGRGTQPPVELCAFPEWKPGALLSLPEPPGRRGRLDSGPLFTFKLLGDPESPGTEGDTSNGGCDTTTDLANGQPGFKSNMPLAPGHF
# T2 sequence (P23944 whole entry): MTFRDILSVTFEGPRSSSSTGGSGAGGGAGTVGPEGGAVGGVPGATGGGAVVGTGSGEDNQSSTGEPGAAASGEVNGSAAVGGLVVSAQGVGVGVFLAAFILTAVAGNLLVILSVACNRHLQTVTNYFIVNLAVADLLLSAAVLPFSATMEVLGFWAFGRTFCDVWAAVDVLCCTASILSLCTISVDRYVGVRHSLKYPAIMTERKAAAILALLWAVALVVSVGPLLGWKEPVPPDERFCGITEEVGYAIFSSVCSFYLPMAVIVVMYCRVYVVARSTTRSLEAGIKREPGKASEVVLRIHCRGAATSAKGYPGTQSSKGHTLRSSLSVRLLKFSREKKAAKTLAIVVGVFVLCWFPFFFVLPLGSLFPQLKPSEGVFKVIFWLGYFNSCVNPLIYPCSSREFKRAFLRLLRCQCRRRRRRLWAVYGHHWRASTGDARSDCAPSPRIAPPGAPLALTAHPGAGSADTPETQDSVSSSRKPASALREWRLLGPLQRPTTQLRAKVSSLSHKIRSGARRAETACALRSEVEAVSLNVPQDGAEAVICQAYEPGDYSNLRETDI
# T2 sequence (P43140 whole entry): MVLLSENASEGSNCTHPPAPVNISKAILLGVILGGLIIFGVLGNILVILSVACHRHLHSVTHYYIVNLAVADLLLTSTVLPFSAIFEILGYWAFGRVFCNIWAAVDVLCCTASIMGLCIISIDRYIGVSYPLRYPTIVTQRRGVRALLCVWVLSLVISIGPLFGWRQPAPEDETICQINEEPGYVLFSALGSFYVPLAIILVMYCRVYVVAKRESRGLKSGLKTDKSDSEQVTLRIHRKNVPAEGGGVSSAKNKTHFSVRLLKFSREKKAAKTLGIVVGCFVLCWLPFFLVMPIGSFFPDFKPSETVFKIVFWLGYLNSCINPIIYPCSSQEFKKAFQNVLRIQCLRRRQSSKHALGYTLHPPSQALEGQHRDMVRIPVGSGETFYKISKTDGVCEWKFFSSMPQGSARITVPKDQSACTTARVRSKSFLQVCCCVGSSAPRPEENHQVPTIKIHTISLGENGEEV
# [5] = tested on: Rattus norvegicus; experiment: Selectivity for mesolimbic over nigrostriatal dopamine system in rat brain as ventral tegmental area infusion of muscimol induced locomotor activity (LMA) by sc dose; assay type: functional
# [6] = tested on: Rattus norvegicus; experiment: Selectivity for mesolimbic over nigrostriatal dopamine system in rat brain as substania nigra zona reticulata infusion of muscimol-induced locomotor activity (LMA) by sc dose; assay type: functional
# [7] = biological target: T2, Adrenergic receptor alpha-1; experiment: Binding affinity towards Alpha-1 adrenergic receptor using [3H]prazosin in rat heart
# [8] = biological target: D(1A) dopamine receptor (Rattus norvegicus, UniProt P18901); experiment: Binding affinity towards D1 receptor using [3H]-SCH- 23390 in rat striatal tissue; assay type: tissue-based, Striatum
# Sequence of D(1A) dopamine receptor (P18901 whole entry): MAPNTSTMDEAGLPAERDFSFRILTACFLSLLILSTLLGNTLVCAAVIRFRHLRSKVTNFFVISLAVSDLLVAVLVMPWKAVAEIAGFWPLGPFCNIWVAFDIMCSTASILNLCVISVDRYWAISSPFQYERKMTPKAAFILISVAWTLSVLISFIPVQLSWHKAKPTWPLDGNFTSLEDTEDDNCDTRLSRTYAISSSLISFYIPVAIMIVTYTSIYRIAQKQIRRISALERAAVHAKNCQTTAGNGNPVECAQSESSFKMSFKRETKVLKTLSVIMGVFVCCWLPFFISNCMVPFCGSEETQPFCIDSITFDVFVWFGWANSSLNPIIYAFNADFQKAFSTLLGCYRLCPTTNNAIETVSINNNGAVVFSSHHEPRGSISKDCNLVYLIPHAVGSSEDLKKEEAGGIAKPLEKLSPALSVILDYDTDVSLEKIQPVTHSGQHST
# [9] = biological target: T3, D(4) dopamine receptor (Homo sapiens, UniProt P21917); experiment: Binding affinity towards Dopamine D4 receptor
# T3 sequence (P21917 whole entry): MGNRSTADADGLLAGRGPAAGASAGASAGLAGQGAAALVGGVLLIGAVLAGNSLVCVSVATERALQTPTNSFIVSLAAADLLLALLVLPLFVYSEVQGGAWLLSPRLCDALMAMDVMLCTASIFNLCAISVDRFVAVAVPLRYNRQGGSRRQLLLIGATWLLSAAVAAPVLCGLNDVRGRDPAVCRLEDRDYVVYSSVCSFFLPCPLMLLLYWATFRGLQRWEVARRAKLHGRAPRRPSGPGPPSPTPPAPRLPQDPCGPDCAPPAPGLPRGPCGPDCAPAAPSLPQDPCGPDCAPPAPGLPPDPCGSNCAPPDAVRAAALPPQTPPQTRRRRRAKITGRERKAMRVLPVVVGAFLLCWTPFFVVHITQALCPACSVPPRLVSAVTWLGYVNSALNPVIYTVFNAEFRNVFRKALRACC
# [10] = biological target: 5-hydroxytryptamine receptor 2A (Bos taurus) (UniProt Q75Z89); experiment: Binding affinity towards 5-hydroxytryptamine 2 receptor
# Sequence of 5-hydroxytryptamine receptor 2A (Bos taurus) (Q75Z89 whole entry): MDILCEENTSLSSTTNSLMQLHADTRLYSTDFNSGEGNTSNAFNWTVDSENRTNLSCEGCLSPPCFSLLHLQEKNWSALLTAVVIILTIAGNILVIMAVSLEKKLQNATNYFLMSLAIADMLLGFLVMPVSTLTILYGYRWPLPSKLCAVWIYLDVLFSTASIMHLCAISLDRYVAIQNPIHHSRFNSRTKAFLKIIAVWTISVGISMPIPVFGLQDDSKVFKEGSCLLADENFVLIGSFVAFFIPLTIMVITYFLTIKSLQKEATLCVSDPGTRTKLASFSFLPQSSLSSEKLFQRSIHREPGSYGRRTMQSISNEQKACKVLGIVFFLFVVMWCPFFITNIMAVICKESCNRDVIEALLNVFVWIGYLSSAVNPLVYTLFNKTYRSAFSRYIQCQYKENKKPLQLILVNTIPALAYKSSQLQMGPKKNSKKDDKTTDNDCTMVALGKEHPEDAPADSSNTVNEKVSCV
# [11] = biological target: Serotonin 3 (5-HT3) receptor; experiment: Binding affinity towards 5-hydroxytryptamine 3 receptor; assay type: protein-complex assay
# [12] = biological target: Adrenergic receptor alpha-1 (Homo sapiens) (UniProt P35348+P25100+P35368); experiment: Binding affinity towards Alpha-1 adrenergic receptor; assay type: protein assay
# [13] = biological target: T3, D(4) dopamine receptor; experiment: Binding affinity towards Chinese hamster ovary cells transfected with human D4 receptor using [3H]spiperone; assay type: cell-based
# Sequence of D(3) dopamine receptor (P35462 whole entry): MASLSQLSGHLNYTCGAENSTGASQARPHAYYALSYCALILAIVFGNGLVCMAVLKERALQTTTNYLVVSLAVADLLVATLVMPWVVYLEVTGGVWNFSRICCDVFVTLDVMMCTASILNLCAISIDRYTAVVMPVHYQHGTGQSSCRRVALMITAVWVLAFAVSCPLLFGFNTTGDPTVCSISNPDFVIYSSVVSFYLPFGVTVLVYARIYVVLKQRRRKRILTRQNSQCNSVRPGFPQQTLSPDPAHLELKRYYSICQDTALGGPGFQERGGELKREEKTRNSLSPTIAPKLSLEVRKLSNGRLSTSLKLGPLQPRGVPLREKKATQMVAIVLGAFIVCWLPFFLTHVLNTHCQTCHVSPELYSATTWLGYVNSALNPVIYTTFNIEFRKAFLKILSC
SMILES,Ki [1],Ki [2],Ki [3],Log Ki [4],Ki [8],also measured
O=C(NCCCCN1CCN(c2ccccc2)CC1)c1ccc(Br)cc1,6.31 nM,126 nM,398 nM,,,
COc1ccc(OC)c(N2CCN(CCCCNC(=O)c3ccc(Br)cc3)CC2)c1,3.16 nM,251 nM,100 nM,-7.5,,
CN1CCN(C2=Nc3cc(Cl)ccc3Nc3ccccc32)CC1 [CLOZAPINE],,,,,,ED50 [5]: 0.002 mg/kg
O=C(CCCN1CCC(O)(c2ccc(Cl)cc2)CC1)c1ccc(F)cc1 [HALOPERIDOL],,,,,,ED50 [6]: 0.05 mg/kg
COc1ccccc1N1CCN(CCCCNC(=O)c2ccc(-c3ccc(C(C)=O)cc3)cc2)CC1,0.316 nM,3.16 nM,39.8 nM,,398 nM,Log Ki [7]: -7.9; ED50 [6]: > 10 mg/kg; Ki [9]: 63.1 nM; ED50 [5]: 0.3 mg/kg; pKB [10]: < 5; Log Ki [11]: > -5; pKB [12]: 7.8
COc1ccccc1N1CCN(CCCCNC(=O)c2ccc(Br)cc2)CC1,0.501 nM,12.6 nM,39.8 nM,-7.9,501 nM,Ki [13]: 50.1 nM
COc1ccccc1N1CCN(CCCCNC(=O)c2ccc(-c3ccc(S(C)(=O)=O)cc3)cc2)CC1,0.316 nM,20 nM,25.1 nM,-7.9,158 nM,
COc1ccccc1N1CCN(CCCCNC(=O)c2ccc(-c3ccc(N)cc3)cc2)CC1,0.2 nM,12.6 nM,20 nM,-8,100 nM,

# From ChEMBL document CHEMBL1128113, “A novel series of arylpiperazines with high affinity and selectivity for the dopamine D3 receptor” (Bioorg Med Chem Lett, 1995)
